Laboratory results: patent publication EP2385948B1, “FUSED THIAZOLO AND OXAZOLO PYRIMIDINONES” (Torrent Pharmaceuticals Limited, priority 2009, dated 2011)
Structures can show the parent of a compound that is named as a salt.

What was measured:
adrenomedullin mRNA = experiment: In vitro induction of adrenomedullin mRNA (real-time PCR, normalized to 18S rRNA); type: cell-based; conditions: Hep3B cell line, relative to vehicle control; for fold induction at 200 µM: Homo sapiens, Hep3B, 6 h
Description: Hep3B cell line (ATCC HB8064) was employed. […] At the end of 6 hours, cells were lysed and total RNA was isolated. Expression of adrenomedullin mRNA along-with expression of 18S rRNA was monitored by real-time PCR. Adrenomedullin mRNA expression was normalized relative to the expression of 18S rRNA. The results were expressed as fold induction of adrenomedullin mRNA relative to vehicle treated control.

VEGF = experiment: In vitro induction of VEGF (ELISA of cell culture supernatant); type: cell-based; conditions: Homo sapiens, Hep3B cell line, 16 hours, relative to vehicle control
Description: Hep3B cell line (ATCC HB8064) was employed. […] Supernatant obtained was analyzed for VEGF by ELISA (R&D systems, USA). […]

erythropoietin = experiment: In vitro erythropoietin induction (ELISA of cell culture supernatant); conditions: for fold induction at 200 µM / fold induction at 50 µM: Homo sapiens, Hep3B, 16 h; for fold induction at 200 µM: read-out: EPO fold induction, Hep3B cell line, 200 uM, 16 hours, relative to vehicle control; for fold induction at 50 µM: read-out: EPO fold induction, Hep3B cell line, 50 uM, 16 hours, relative to vehicle control; for EPO fold induction: Hep3B cell line, 200 uM, 16 hours, relative to vehicle control
Description: Hep3B cell line (ATCC HB8064) was employed. Induction of erythropoietin was carried out for the indicated dose of compounds for 16 hours duration. At the end of 16 hours, cell culture medium was collected and centrifuged to remove any debris. Supernatant obtained was analyzed for erythropoietin by ELISA (R&D systems, USA). The results were expressed as fold induction as compared to vehicle control.

Row | Molecule | fold induction at 200 µM (erythropoietin) | also measured
1 | O=C(O)CNC(=O)c1c(O)nc2sc3c(n2c1=O)CCN(Cc1ccc(Cl)cc1)C3 [Compound 23, {[7-(4-Chloro-benzyl)-2-hydroxy-4-oxo-5,6,7,8-tetrahydro-4H-9-thia-1,4a,7-triaza-fluorene-3-carbonyl]-amino}-acetic acid] | 9 to 16 | fold induction at 200 µM (adrenomedullin mRNA): 2 to 4; fold induction at 200 µM (VEGF): 2 to 4
2 | O=C(O)CNC(=O)c1c(O)nc2sc3c(n2c1=O)CCN(C(=O)CC1CC1)C3 [Compound 27, {[7-(2-Cyclopropyl-acetyl)-2-hydroxy-4-oxo-5,6,7,8-tetrahydro-4H-9-thia-1,4a,7-triaza-fluorene-3-carbonyl]-amino}-acetic acid] | 9 to 16 | fold induction at 200 µM (adrenomedullin mRNA): > 8; fold induction at 200 µM (VEGF): 2 to 4
3 | COc1ccc(C(=O)N2CCc3c(sc4nc(O)c(C(=O)NCC(=O)O)c(=O)n34)C2)cc1Cl [Compound 37, {[7-(3-Chloro-4-methoxy-benzoyl)-2-hydroxy-4-oxo-5,6,7,8-tetrahydro-4H-9-thia-1,4a,7-triaza-fluorene-3-carbonyl]-amino}-acetic acid] | 5 to 8 | –
4 | O=C(O)CNC(=O)c1c(O)nc2sc3c(n2c1=O)CCCCCC3 [Compound 38, [(2-Hydroxy-4-oxo-5,6,7,8,9,10-hexahydro-4H-11-thia-1,4a-diaza-cycloocta[a]indene-3-carbonyl)-amino]-acetic acid] | 9 to 16 | –
5 | O=C(O)CNC(=O)c1c(O)nc2sc3c(n2c1=O)CCN(Cc1ccc2c(c1)CCC2)C3 [Compound 39, [(2-Hydroxy-7-indan-5-ylmethyl-4-oxo-5,6,7,8-tetrahydro-4H-9-thia-1,4a,7-triaza-fluorene-3-carbonyl)-amino]-acetic acid] | 2 to 4 | –
6 | CC(NC(=O)c1c(O)nc2sc3c(n2c1=O)CCC(C)(C)C3)C(=O)O (stereo not drawn) [Compound 40, 2-[(2-Hydroxy-7,7-dimethyl-4-oxo-5,6,7,8-tetrahydro-4H-9-thia-1,4a-diaza-fluorene-3-carbonyl)-amino]-propionic acid] | 5 to 8 | –
7 | CS(=O)(=O)c1ccc(C(=O)N2CCc3c(sc4nc(O)c(C(=O)NCC(=O)O)c(=O)n34)C2)cc1 [Compound 42, {[2-Hydroxy-7-(4-methanesulfonyl-benzoyl)-4-oxo-5,6,7,8-tetrahydro-4H-9-thia-1,4a,7-triaza-fluorene-3-carbonyl]-amino}-acetic acid] | 5 to 8 | –
8 | CC(C)[C@H](NC(=O)c1c(O)nc2sc3c(n2c1=O)CCC(C)(C)C3)C(=O)O [Compound 43, 2-[(2-Hydroxy-7,7-dimethyl-4-oxo-5,6,7,8-tetrahydro-4H-9-thia-1,4a-diaza-fluorene-3-carbonyl)-amino]-3-methyl-butyric acid (L-isomer)] | < 2 | –
9 | C[C@@H](NC(=O)c1c(O)nc2sc3c(n2c1=O)CCC(C)(C)C3)C(=O)O [Compound 44, 2-[(2-Hydroxy-7,7-dimethyl-4-oxo-5,6,7,8-tetrahydro-4H-9-thia-1,4a-diaza-fluorene-3-carbonyl)-amino]-propionic acid (D-isomer)] | < 2 | –
10 | O=C(O)CNC(=O)c1c(O)nc2sc3c(n2c1=O)CCN(Cc1cc(C(F)(F)F)cc(C(F)(F)F)c1)C3 [Compound 46, {[7-(3,5-Bis-trifluoromethyl-benzyl)-2-hydroxy-4-oxo-5,6,7,8-tetrahydro-4H-9-thia-1,4a,7-triaza-fluorene-3-carbonyl]-amino}-acetic acid] | – | fold induction at 50 µM (erythropoietin): 2 to 4
11 | O=C(O)CNC(=O)c1c(O)nc2sc3c(n2c1=O)CCN(Cc1ccc(Cl)c(Cl)c1)C3 [Compound 49, {[7-(3,4-Dichloro-benzyl)-2-hydroxy-4-oxo-5,6,7,8-tetrahydro-4H-9-thia-1,4a,7-triaza-fluorene-3-carbonyl]-amino}-acetic acid] | 5 to 8 | fold induction at 200 µM (adrenomedullin mRNA): 5 to 8
12 | O=C(O)CNC(=O)c1c(O)nc2sc3c(n2c1=O)CCN(Cc1ccc(C(F)(F)F)cc1)C3 [Compound 52, {[2-Hydroxy-4-oxo-7-(4-trifluoromethyl-benzyl)-5,6,7,8-tetrahydro-4H-9-thia-1,4a,7-triaza-fluorene-3-carbonyl]-amino}-acetic acid] | 5 to 8 | fold induction at 200 µM (adrenomedullin mRNA): 5 to 8
13 | CCC1(CC)CCc2c(sc3nc(O)c(C(=O)NCC(=O)O)c(=O)n23)C1 [Compound 53, [(7,7-Diethyl-2-hydroxy-4-oxo-5,6,7,8-tetrahydro-4H-9-thia-1,4a-diaza-fluorene-3-carbonyl)-amino]-acetic acid] | < 2 | –
14 | CC1(C)CCc2c(sc3nc(O)c(C(=O)NC(C)(C)C(=O)O)c(=O)n23)C1 [Compound 54, 2-[(2-Hydroxy-7,7-dimethyl-4-oxo-5,6,7,8-tetrahydro-4H-9-thia-1,4a-diaza-fluorene-3-carbonyl)-amino]-2-methyl-propionic acid] | < 2 | –
15 | CC1(C)CCc2c(sc3nc(O)c(C(=O)N[C@H](C(=O)O)c4ccccc4)c(=O)n23)C1 [Compound 55, [(2-Hydroxy-7,7-dimethyl-4-oxo-5,6,7,8-tetrahydro-4H-9-thia-1,4a-diaza-fluorene-3-carbonyl)-amino]-phenyl-acetic acid, L-isomer] | < 2 | –
16 | O=C(O)CNC(=O)c1c(O)nc2sc3c(n2c1=O)CCC(NC(=O)c1ccccc1)C3 (stereo not drawn) [Compound 56, [(7-Benzoylamino-2-hydroxy-4-oxo-5,6,7,8-tetrahydro-4H-9-thia-1,4a-diaza-fluorene-3-carbonyl)-amino]-acetic acid] | < 2 | –
17 | O=C(O)CNC(=O)c1c(O)nc2oc3c(n2c1=O)CCCC3 [Compound 57, [(2-Hydroxy-4-oxo-5,6,7,8-tetrahydro-4H-9-oxa-1,4a-diaza-fluorene-3-carbonyl)-amino]-acetic acid] | < 2 | –
18 | CC1CCc2c(sc3nc(O)c(C(=O)NCC(=O)O)c(=O)n23)C1 (stereo not drawn) [Compound 58, [(2-Hydroxy-7-methyl-4-oxo-5,6,7,8-tetrahydro-4H-9-thia-1,4a-diaza-fluorene-3-carbonyl)-amino]-acetic acid] | 5 to 8 | –
19 | CCCC1CCc2c(sc3nc(O)c(C(=O)NCC(=O)O)c(=O)n23)C1 (stereo not drawn) [Compound 59, [(2-Hydroxy-4-oxo-7-propyl-5,6,7,8-tetrahydro-4H-9-thia-1,4a-diaza-fluorene-3-carbonyl)-amino]-acetic acid] | < 2 | –
20 | CC1(C)CCc2sc3nc(O)c(C(=O)NCC(=O)O)c(=O)n3c2C1 [Compound 60, [(2-Hydroxy-6,6-dimethyl-4-oxo-5,6,7,8-tetrahydro-4H-9-thia-1,4a-diaza-ftuorene-3-carbonyl)-amino]-acetic acid] | 5 to 8 | –
21 | CN(CC(=O)O)C(=O)c1c(O)nc2sc3c(n2c1=O)CCC(C)(C)C3 [Compound 61, [(2-Hydroxy-7,7-dimethyl-4-oxo-5,6,7,8-tetrahydro-4H-9-thia-1,4a-diaza-fluorene-3-carbonyl)-methyl-amino] -acetic acid] | < 2 | –
22 | O=C(O)CNC(=O)c1c(O)nc2sc3c(n2c1=O)CCC(c1ccccc1)C3 (stereo not drawn) [Compound 64, [(2-Hydroxy-4-oxo-7-phenyl-5,6,7,8-tetrahydro-4H-9-thia-1,4a-diaza-fluorene-3-carbonyl)-amino]-acetic acid] | < 2 | –
23 | O=C(O)CNC(=O)c1c(O)nc2sc3c(n2c1=O)CCOC3 [Compound 65, [(2-Hydroxy-4-oxo-5,8-dihydro-4H,6H-7-oxa-9-thia-1,4a-diaza-fluorene-3-carbonyl)-amino]-acetic acid] | 5 to 8 | –
24 | O=C(O)CNC(=O)c1c(O)nc2sc3c(n2c1=O)CCS(=O)(=O)C3 [Compound 67, [(2-Hydroxy-4,7,7-trioxo-5,6,7,8-tetrahydro-4H-71ambda*6*,9-dithia-1,4a-diaza-fluorene-3-carbonyl)-amino]-acetic acid] | 2 to 4 | –
25 | O=C(O)CNC(=O)c1c(O)nc2sc3c(n2c1=O)CCC1(CC1)C3 [Compound 70, N-[(2'-hydroxy-4'-oxo-6',9'-dihydro-4'H,7'H-spiro[cyclopropane-1,8'-pyrimido[2,1-b][1,3]benzothiazol]-3'-yl)carbonyl]glycine] | 2 to 4 | –
26 | O=C(O)CNC(=O)c1c(O)nc2sc3c(n2c1=O)CCC(C(=O)O)C3 (stereo not drawn) [Compound 72, 3-(Carboxymethyl-carbamoyl)-2-hydroxy-4-oxo-5,6,7,8-tetrahydro-4H-9-thia-1,4a-diaza-fluorene-7-carboxylic acid] | < 2 | –
27 | CC1(C)CCc2c(sc3nc(O)c(C(=O)NCC(=O)O)c(=O)n23)C1 [Compound 80, [(2-Hydroxy-7,7-dimethyl-4-oxo-5,6,7,8-tetrahydro-4H-9-thia-1,4a-diaza-fluorene-3-carbonyl)-amino]-acetic acid, Disodium salt] | – | EPO fold induction (erythropoietin; Disodium salt, 960 min): ++++ (++++ indicates 9-16fold)
28 | O=C(O)CNC(=O)c1c(O)nc2sc3c(n2c1=O)CCCCC3 [Compound 82, [(2-Hydroxy-4-oxo-6,7,8,9-tetrahydro-4H,5H-10-thia-1,4a-diaza-benzo[a]azulene-3-carbonyl)-amino]-acetic acid, Disodium salt] | – | Adrenomedullin mRNA (fold induction) (adrenomedullin mRNA; 200 uM, 6 hours, Disodium salt, 360 min): +++ (+++ indicates 5-8 fold); fold induction at 50 µM (erythropoietin): 9 to 16
29 | {[7-(3,5-Dimethoxy-benzoyl)-2-hydroxy-4-oxo-5,6,7,8-tetrahydro-4H-9-thia-1,4a,7-triaza-fluorene-3-carbonyl]-amino}-acetic acid [Compound 41] | – | EPO fold induction (erythropoietin): ++ (++ indicates 2-4 fold)
